Test results as given in patent US20080194585A1, “Fungicidal Pyrazine Derivatives” (priority 2005, published 2008).
Marks after values point to notes of the source that are not given here.

Experiments:
Botrytis cinerea = test: Test E: tomato botrytis, preventive spray on tomato seedlings
Plasmopara viticola = test: Test D: grape downy mildew, spray after inoculation of grape seedlings; assay type: in vivo; settings: 200 ppm
Description: Upon removal, disease ratings were made. […] A dash (-) indicates no test results.

[1] = test system: Puccinia recondita f. sp. tritici; test: Test K: wheat leaf rust, preventive spray on wheat seedlings
fusarium graminearium = test: Test I: wheat head scab, preventive spray on wheat seedlings; settings: for Test I disease control rating: 200 ppm
Description: (the causal agent of wheat head scab) and incubated in a saturated atmosphere at 20° C. for 72 h, and then moved to a growth chamber at 22° C. for 5 days, after which disease ratings were made.

Rhizoctonia oryzae = test: Test G: turf brown patch, preventive spray on creeping bent grass seedlings
Description: (the causal agent of turf brown patch) and incubated in a saturated atmosphere at 27° C. for 24 h, and then moved to a growth chamber at 27° C. for 5 days, after which disease ratings were made.

Septoria nodorum = test: Test H: wheat glum blotch, preventive spray on wheat seedlings
Description: (the causal agent of wheat glum blotch) and incubated in a saturated atmosphere at 20° C. for 48 h, and then moved to a growth chamber at 22° C. for 5 days, after which disease ratings were made.

Phytophthora infestans = test: whole plant or invertebrate; assay type: in vivo; settings: for Test F disease control rating: 200 ppm
[2] = test system: Colletotrichum orbiculare; test: Test B: cucumber Colletotrichum anthracnose, preventive spray on cucumber seedlings
Sclerotinia sclerotiorum = test: Test C: cucumber white mold, preventive spray on cucumber seedlings; settings: 200 ppm
Septoria tritici = test: Test J: wheat leaf blotch, preventive spray on wheat seedlings; assay type: in vivo
Description: A dash (-) indicates no test results.

Pythium aphanidermatum = test: Test A: bluegrass pythium blight, preventive spray on bluegrass seedlings; settings: for Test A disease control rating: 200 ppm
[3] = test system: Erysiphe graminis f. sp. tritici; test: Test L: wheat powdery mildew, preventive spray on wheat seedlings
[4] = 100 = 100% disease control, 0 = no control
[5] = 40 ppm (marked *), 100 = 100% disease control, 0 = no control

| Compound | Test E disease control rating (Botrytis cinerea; 200 ppm) [%] | Test D disease control rating (Plasmopara viticola) [%] | Test K disease control rating ([1]; 200 ppm) [%] | Test I disease control rating (fusarium graminearium) [%] | Test G disease control rating (Rhizoctonia oryzae; 200 ppm) [%] | Test H disease control rating (Septoria nodorum; 200 ppm) [%] | Test F disease control rating (Phytophthora infestans) [%] | Test B disease control rating ([2]; 200 ppm) [%] | Test C disease control rating (Sclerotinia sclerotiorum) [%] | Test J disease control rating (Septoria tritici; 200 ppm) [%] | Test A disease control rating (Pythium aphanidermatum) [%] | Test L disease control rating ([3]; 200 ppm) [%] | further results |
| --- | --- | --- | --- | --- | --- | --- | --- | --- | --- | --- | --- | --- | --- |
| CC(C)Cn1c(-c2ccc(F)cc2Cl)c(Cl)nc(-n2cccn2)c1=O [Compound 302, 5-Chloro-6-(2-chloro-4-fluorophenyl)-1-(2-methylpropyl)-3-(1H-pyrazol-1-yl)-2(1H)-pyrazinone] | – | – | – | – | – | – | – | – | – | – | – | – | pest or weed control at 40 ppm (Botrytis cinerea; Botrytis cinerea, in Solanum lycopersicum, topical, 72 h, read-out: Test E disease control rating): 100%; Test D disease control rating (Plasmopara viticola; [4]): 0%; pest or weed control at 40 ppm ([1]; Puccinia recondita, in Triticum aestivum, 192 h, read-out: Test K disease control rating): 100%; pest or weed control at 200 ppm (fusarium graminearium; Fusarium, in Triticum aestivum, topical, 192 h, read-out: Test I disease control rating, 200 ppm, 100 = 100% disease control, 0 = no control): 0%; pest or weed control at 40 ppm (Rhizoctonia oryzae; Waitea circinata, in Agrostis stolonifera, topical, 144 h, read-out: Test G disease control rating, 40 ppm (marked *), 100 = 100% disease control, 0 = no control): 94%; pest or weed control at 40 ppm (Septoria nodorum; Parastagonospora nodorum, in Triticum aestivum, topical, 168 h, read-out: Test H disease control rating, 40 ppm (marked *), 100 = 100% disease control, 0 = no control): 99%; pest or weed control at 200 ppm (Phytophthora infestans; Phytophthora infestans, in Solanum lycopersicum, topical, 144 h, read-out: Test F disease control rating): 0%; pest or weed control at 40 ppm ([2]; Colletotrichum orbiculare, in Cucumis sativus, 144 h, read-out: Test B disease control rating, 40 ppm (marked *), 100 = 100% disease control, 0 = no control): 98%; Test C disease control rating (Sclerotinia sclerotiorum; [4]): 60%; pest or weed control at 40 ppm (Septoria tritici; Zymoseptoria tritici, 528 h, 40 ppm (marked *), 100 = 100% disease control, 0 = no control, read-out: Test J disease control rating): 100%; pest or weed control at 200 ppm (Pythium aphanidermatum; Pythium aphanidermatum, 120 h, read-out: Test A disease control rating): 0%; pest or weed control at 40 ppm ([3]; Blumeria graminis, in Triticum aestivum, 168 h, read-out: Test L disease control rating, 40 ppm (marked *), 100 = 100% disease control, 0 = no control): 98% |
| CC(C)Cn1c(-c2ccc(F)cc2Cl)c(Cl)nc(-n2cccn2)c1=O [Compound 303, 5-Chloro-6-(2-chloro-4-fluorophenyl)-1-(2-methylpropyl)-3-(1H-pyrazol-1-yl)-2(1H)-pyrazinone] | – | – | – | – | – | – | – | – | – | – | – | – | Test E disease control rating (Botrytis cinerea; [5]): 100* %; Test D disease control rating (Plasmopara viticola; [4]): 58%; Test K disease control rating [1, 5]: 100* %; Test I disease control rating (fusarium graminearium; [4]): 0%; Test G disease control rating (Rhizoctonia oryzae; [5]): 100* %; Test H disease control rating (Septoria nodorum; [5]): 100* %; Test F disease control rating (Phytophthora infestans; [4]): 0%; Test B disease control rating [2, 5]: 100* %; Test C disease control rating (Sclerotinia sclerotiorum; [4]): 94%; Test J disease control rating (Septoria tritici; [5]): 100* %; Test A disease control rating (Pythium aphanidermatum; [4]): 0%; Test L disease control rating [3, 5]: 100* % |
| CC(C)Cn1c(-c2c(F)cc(F)cc2F)c(Cl)nc(-n2cccn2)c1=O [compound 7] | 100 | 88 | 100 | 99 | 95 | 100 | 0 | 100 | 95 | 100 | 51 | 100 | – |
| O=c1c(-n2cccn2)nc(Cl)c(-c2c(F)cccc2F)n1CC1CC1 [compound 18] | 100 | 98 | 100 | 0 | 100 | 100 | 0 | 100 | 99 | 100 | 0 | 100 | – |
| CCC(C)Cn1c(-c2c(F)cc(F)cc2F)c(Cl)nc(-n2cccn2)c1=O (stereo not drawn) [compound 19] | 100 | 46 | 100 | 90 | 100 | 100 | 27 | 100 | 98 | 100 | 0 | 100 | – |
| CC(C)Cn1c(-c2ccc(Cl)cc2)c(Cl)nc(-n2cncn2)c1=O [compound 23] | 99 | 0 | 68 | 68 | 33 | 98 | 0 | 21 | 0 | 98 | 0 | 0 | – |
| Cc1nc(C)n(-c2nc(Cl)c(-c3ccc(Cl)cc3)n(CC(C)C)c2=O)n1 [compound 24] | 0 | 5 | 0 | 0 | 0 | 0 | 0 | 0 | 0 | 80 | 0 | 0 | – |
| CC(C)Cn1c(-c2c(Cl)cccc2Cl)c(Cl)nc(-n2cccn2)c1=O [compound 43] | 100 | 0 | 100 | 0 | 92 | 100 | 0 | 99 | 94 | – | 0 | 96 | Test J disease control rating (Septoria tritici; 40 ppm (*)): 100* % |
| CC(C)Cn1c(-c2ccc(Cl)cc2F)c(Cl)nc(-n2cccn2)c1=O [compound 45] | 100 | 0 | 100 | 82 | 26 | 100 | 0 | 100 | 85 | – | 0 | 85 | Test J disease control rating (Septoria tritici; 40 ppm (*)): 100* % |
| O=c1c(-n2cccn2)nc(Cl)c(-c2c(F)cccc2F)n1C1CCCCC1 [compound 47] | 100 | 0 | 95 | 78 | 92 | 99 | 0 | 54 | 0 | 100 | 74 | 99 | – |
| CC(C)Cn1c(-c2cccc(F)c2F)c(Cl)nc(-n2cccn2)c1=O [compound 50] | 100 | 0 | 100 | 0 | 95 | 100 | 0 | 0 | 98 | – | 0 | 94 | Test J disease control rating (Septoria tritici; 40 ppm (*)): 100* % |
